Experimental findings from patent publication US12473304B2, “Heterocyclic PAD4 inhibitors” (BRISTOL-MYERS SQUIBB COMPANY, priority 2020, dated 2025) are described below.

The structures appear in SMILES notation.

The target of this experiment is human PAD4 (hPAD4) (Homo sapiens (Human), UniProt Q9UM07). Kind of experiment: RFMS Human PAD4 Functional Assay 1. In kind it is biochemical. Particulars: RFMS assay 1; 5 nM hPAD4, 250 μM BAEE substrate, 50 μM calcium, 37° C. The procedure, abridged:
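Citrullination product read by RapidFire triple-quad MRM against a modified-citrulline internal standard, after TCA stop and 30 min phenyl glyoxal step at 37 °C. Reaction: 250 μM BAEE, 5 nM human PAD4, 90 min at 37 °C, pH 7.5 HEPES buffer with 50 μM calcium and 5 μM TPEN, following 30 min compound–enzyme preincubation (max 50 μM).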

Chain of human PAD4 (hPAD4) (Q9UM07 whole entry): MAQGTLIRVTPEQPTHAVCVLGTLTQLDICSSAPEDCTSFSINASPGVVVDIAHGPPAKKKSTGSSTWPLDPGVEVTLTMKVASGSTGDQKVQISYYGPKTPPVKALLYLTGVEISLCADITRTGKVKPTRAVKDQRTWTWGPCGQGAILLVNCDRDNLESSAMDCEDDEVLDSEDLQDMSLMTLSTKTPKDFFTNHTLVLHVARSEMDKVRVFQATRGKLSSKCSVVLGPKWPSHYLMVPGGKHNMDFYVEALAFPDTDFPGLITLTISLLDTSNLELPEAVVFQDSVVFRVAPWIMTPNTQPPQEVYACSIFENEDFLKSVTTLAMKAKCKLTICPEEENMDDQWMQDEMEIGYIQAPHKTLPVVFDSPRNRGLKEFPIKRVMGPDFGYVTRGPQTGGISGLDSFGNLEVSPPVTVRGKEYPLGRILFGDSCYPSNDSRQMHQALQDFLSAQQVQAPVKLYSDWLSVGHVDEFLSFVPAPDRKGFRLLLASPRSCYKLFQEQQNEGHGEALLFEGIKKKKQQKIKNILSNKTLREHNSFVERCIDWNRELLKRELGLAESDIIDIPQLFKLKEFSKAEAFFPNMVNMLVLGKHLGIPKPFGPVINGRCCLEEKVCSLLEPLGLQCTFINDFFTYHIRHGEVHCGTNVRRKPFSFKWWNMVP

In the case of `Cc1c(-c2cc3ccc(-c4ccc5c(c4)CNC5=O)cc3n2CC2CC2)oc2cc(C(=O)N3C[C@H](N)C[C@@H](F)C3)ccc12` [Example 195, 5-(2-(6-((3R,5R)-3-Amino-5-fluoropiperidine-1-carbonyl)-3-methylbenzofuran-2-yl)-1-(cyclopropylmethyl)-1H-indol-6-yl)isoindolin-1-one], the IC50 is 363 nM.

As to `COc1cc(C(=O)N2CC3CCC2[C@@H]3N)cn2nc(-c3cc4cccc(C5CCN(C(C)=O)CC5)c4n3CC3CC3)c(C)c12` (stereo partly drawn) [Example 412, 1-(4-(2-(6-((7R)-7-Amino-2-azabicyclo[2.2.1]heptane-2-carbonyl)-4-methoxy-3-methylpyrazolo[1,5-a]pyridin-2-yl)-1-(cyclopropylmethyl)-1H-indol-7-yl)piperidin-1-yl)ethan-1-one], the IC50 was determined as 10 nM.

As for `Cc1c(-c2cc3ccc(-c4ccc5[nH]ncc5c4)nc3n2CC2CC2)nn2cc(C(=O)N3C[C@H](N)C[C@@H](F)C3)ccc12` [Example 323, (3R,5R)-1-{2-[1-(Cyclopropylmethyl)-6-(1H-indazol-5-yl)-1H-pyrrolo[2,3-b]pyridin-2-yl]-3-methylpyrazolo[1,5-a]pyridine-6-carbonyl}-5-fluoropiperidin-3-amine], the IC50 came to 140 nM.

For the molecule `Cc1c(-c2cc3ccc(-c4ccc(C(N)=O)c(F)c4)nc3n2CC2CC2)nn2cc(C(=O)N3C[C@H](N)C[C@@H](F)C3)ccc12` [Example 84, 4-(2-(6-((3R,5R)-3-Amino-5-fluoropiperidine-1-carbonyl)-3-methylpyrazolo[1,5-a]pyridin-2-yl)-1-(cyclopropylmethyl)-1H-pyrrolo[2,3-b]pyridin-6-yl)-2-fluorobenzamide], the IC50 is 610 nM.

Regarding `Cc1ccc2cc(-c3nn4cc(C(=O)N5C[C@H](N)C[C@@H](F)C5)cc(F)c4c3C)n(CC3CC3)c2n1` [Example 54, ((3R,5R)-3-Amino-5-fluoropiperidin-1-yl)(2-(1-(cyclopropylmethyl)-6-methyl-1H-pyrrolo[2,3-b]pyridin-2-yl)-4-fluoro-3-methylpyrazolo[1,5-a]pyridin-6-yl)methanone], the IC50 came out at 358 nM.

As for `COc1cc(C(=O)N2CC3CCC2[C@@H]3N)cc2oc(-c3cc4ccc(N5CCC(N)CC5)cc4n3CC3CC3)c(C)c12` (stereo partly drawn) [Example 160, ((7R)-7-Amino-2-azabicyclo[2.2.1]heptan-2-yl)(2-(6-(4-aminopiperidin-1-yl)-1-(cyclopropylmethyl)-1H-indol-2-yl)-4-methoxy-3-methylbenzofuran-6-yl)methanone], the IC50 came out at 48 nM.

Take `COc1cc(C(=O)N2C[C@H](N)C[C@@H](F)C2)cc2sc(-c3cc4ccc(-c5ccc6c(c5)C(=O)NC6)cc4n3CC3CC3)c(C)c12` [Example 143, 6-(2-(6-((3R,5R)-3-Amino-5-fluoropiperidine-1-carbonyl)-4-methoxy-3-methylbenzo[b]thiophen-2-yl)-1-(cyclopropylmethyl)-1H-indol-6-yl)isoindolin-1-one]: the IC50 amounted to 588 nM.

On to `COc1nc(C(=O)NC[C@H](F)CN)cn2nc(-c3cc4cccnc4n3CC3CC3)c(C)c12` [Example 117, (R)-N-(3-Amino-2-fluoropropyl)-2-(1-(cyclopropylmethyl)-1H-pyrrolo[2,3-b]pyridin-2-yl)-4-methoxy-3-methylpyrazolo[1,5-a]pyrazine-6-carboxamide], for which the IC50 was determined as 15000 nM.

As for `Cc1c(-c2cc3cccnc3n2CC2CC2)nn2cc(C(=O)N3C[C@H](N)C[C@@H](F)C3)cc(F)c12` [Example 52, ((3R,5R)-3-Amino-5-fluoropiperidin-1-yl)(2-(1-(cyclopropylmethyl)-1H-pyrrolo[2,3-b]pyridin-2-yl)-4-fluoro-3-methylpyrazolo[1,5-a]pyridin-6-yl)methanone], the IC50 is 882 nM.

For `Cc1c(-c2cc3cc(F)cc(C4CCN(C(=O)C5CCCO5)CC4)c3n2CC2CC2)nn2cc(C(=O)N3C[C@H](N)C[C@@H](F)C3)ccc12` (single isomer, unassigned) [Example 490], the IC50 is 150 nM.

For the molecule `Cc1c(-c2cc3cccc(C4CN(C(=O)C5CCCCO5)C4)c3n2CC2CC2)nn2cc(C(=O)N3CCC[C@@H](N)C3)ccc12` (mixture of isomers) [Example 545, ((R)-3-Aminopiperidin-1-yl)(2-(1-(cyclopropylmethyl)-7-(1-(tetrahydro-2H-pyran-2-carbonyl)azetidin-3-yl)-1H-indol-2-yl)-3-methylpyrazolo[1,5-a]pyridin-6-yl)methanone], the IC50 worked out at 260 nM.

On to `Cc1c(-c2cc3cccc(OC[C@@H]4CCC(=O)N4)c3n2CC2CC2)nn2cc(C(=O)N3CCC[C@@H](N)C3)cc(F)c12` [Example 569, (S)-5-(((2-(6-((R)-3-Aminopiperidine-1-carbonyl)-4-fluoro-3-methylpyrazolo[1,5-a]pyridin-2-yl)-1-(cyclopropylmethyl)-1H-indol-7-yl)oxy)methyl)pyrrolidin-2-one], for which the IC50 worked out at 20 nM.

With `Cc1c(-c2cc3cccc(C4CCN(C(=O)[C@@H](C)O)CC4)c3n2CC2CC2)nn2cc(C(=O)N3CCC[C@@H](N)C3)ccc12` [Example 471, (R)-1-(4-(2-(6-((R)-3-aminopiperidine-1-carbonyl)-3-methylpyrazolo[1,5-a]pyridin-2-yl)-1-(cyclopropylmethyl)-1H-indol-7-yl)piperidin-1-yl)-2-hydroxypropan-1-one], the IC50 turned out to be 90 nM.

Turning to `CC(=O)Nc1ccc(-c2ccc3cc(-c4nn5cc(C(=O)N6CCC[C@@H](N)C6)ccc5c4C)n(CC4CC4)c3c2)cn1` [Example 348, N-[5-(2-{6-[(3R)-3-Aminopiperidine-1-carbonyl]-3-methylpyrazolo[1,5-a]pyridin-2-yl}-1-(cyclopropylmethyl)-1H-indol-6-yl)pyridin-2-yl]acetamide], the IC50 worked out at 140 nM.

For `Cc1c(-c2cc3ccc(N4CCC(N(C)S(C)(=O)=O)CC4)cc3n2CC2CC2)nn2cc(C(=O)N3CCC[C@@H](N)C3)ccc12` [Example 360, N-[1-(2-{6-[(3R)-3-Aminopiperidine-1-carbonyl]-3-methylpyrazolo[1,5-a]pyridin-2-yl}-1-(cyclopropylmethyl)-1H-indol-6-yl)piperidin-4-yl]-N-methylmethanesulfonamide], the IC50 is 450 nM.

Regarding `COc1cc(C(=O)N2C[C@H](N)C[C@@H](F)C2)cc2oc(-c3cc4cccnc4n3CC3CC3)c(C)c12` [Example 147, ((3R,5R)-3-Amino-5-fluoropiperidin-1-yl)(2-(1-(cyclopropylmethyl)-1H-pyrrolo[2,3-b]pyridin-2-yl)-4-methoxy-3-methylbenzofuran-6-yl)methanone], the IC50 turned out to be 954 nM.

For the molecule `COc1cc(C(=O)N2C[C@H](N)C[C@@H](F)C2)cn2nc(-c3cc4cccc(C5CCN(C(=O)[C@H]6CC[C@@H](O)CC6)CC5)c4n3CC3CC3)c(C)c12` [Example 407, ((3R,5R)-3-Amino-5-fluoropiperidin-1-yl)(2-(1-(cyclopropylmethyl)-7-(1-((1s,4s)-4-hydroxycyclohexane-1-carbonyl)piperidin-4-yl)-1H-indol-2-yl)-4-methoxy-3-methylpyrazolo[1,5-a]pyridin-6-yl)methanone], the IC50 was 30 nM.

For `Cc1c(-c2cc3cccc(C4CCN(C(=O)[C@H]5CC[C@H](O)CC5)CC4)c3n2CC2CC2)nn2cc(C(=O)N3C[C@H](N)C[C@@H](F)C3)cc(F)c12` [Example 414, ((3R,5R)-3-Amino-5-fluoropiperidin-1-yl)(2-(1-(cyclopropylmethyl)-7-(1-((1r,4r)-4-hydroxycyclohexane-1-carbonyl)piperidin-4-yl)-1H-indol-2-yl)-4-fluoro-3-methylpyrazolo[1,5-a]pyridin-6-yl)methanone], the IC50 stood at 260 nM.

For the molecule `Cc1c(-c2cc3ccnc(OCC4CNC(=O)C4)c3n2CC2CC2)nn2cc(C(=O)N3C[C@H](N)C[C@@H](F)C3)ccc12` (single isomer, unassigned; isomer 2) [Example 615], the IC50 was 70 nM.

Turning to `Cc1c(-c2cc3ccc(-c4ccc(C(N)=O)cc4Cl)cc3n2CC2CC2)nn2cc(C(=O)N3CC4CCC3[C@@H]4N)cc(F)c12` (stereo partly drawn) [Example 294, 4-(2-{6-[(7R)-7-Amino-2-azabicyclo[2.2.1]heptane-2-carbonyl]-4-fluoro-3-methylpyrazolo[1,5-a]pyridin-2-yl}-1-(cyclopropylmethyl)-1H-indol-6-yl)-3-chlorobenzamide], the IC50 turned out to be 200 nM.

For `Cc1c(-c2cc3cccc(C4CCN(C(=O)C5CC(O)C5)CC4)c3n2CC2CC2)nn2cc(C(=O)N3CCC[C@@H](N)C3)cc(F)c12` (mixture of isomers) [Example 420, (R)-(3-Aminopiperidin-1-yl)(2-(1-(cyclopropylmethyl)-7-(1-(3-hydroxycyclobutane-1-carbonyl)piperidin-4-yl)-1H-indol-2-yl)-4-fluoro-3-methylpyrazolo[1,5-a]pyridin-6-yl)methanone], the half-inhibitory concentration (IC50) turned out to be 290 nM.

As to `COC(=O)N(C)C1CCN(c2ccc3cc(-c4nn5cc(C(=O)N6CCC[C@@H](N)C6)cc(OC)c5c4C)n(CC4CC4)c3c2)CC1` [Example 255, Methyl N-[1-(2-{6-[(3R)-3-aminopiperidine-1-carbonyl]-4-methoxy-3-methylpyrazolo[1,5-a]pyridin-2-yl}-1-(cyclopropylmethyl)-1H-indol-6-yl)piperidin-4-yl]-N-methylcarbamate], the IC50 is 250 nM.

On to `COC1CN(c2ccc3cc(-c4nn5cc(C(=O)N6CC7CCC6[C@@H]7N)ccc5c4C)n(CC4CC4)c3n2)C1` (stereo partly drawn) [Example 79, ((7R)-7-Amino-2-azabicyclo[2.2.1]heptan-2-yl)(2-(1-(cyclopropylmethyl)-6-(3-methoxyazetidin-1-yl)-1H-pyrrolo[2,3-b]pyridin-2-yl)-3-methylpyrazolo[1,5-a]pyridin-6-yl)methanone], for which the IC50 came to 212 nM.
